Laboratory results taken from patent publication US20190256499A1, “SUBSTITUTED QUINOXALINE DERIVATIVES AS INHIBITORS OF PFKFB” (priority 2016, published 2019).
≈ marks a conversion by molar mass, not a printed value.

Assays:
[1] = target: T1, Human recombinant His-tagged PFKFB3 (Homo sapiens, UniProt Q16875); experiment: PFKFB3 IC50 determination assay (modified ADP-Glo in vitro kinase assay); type: biochemical; conditions: human recombinant PFKFB3 25 nM, ATP 20 μM, fructose-6-phosphate 2 μM, 2 h, rt; read-out: PFKFB IC50
T1 construct: His; made in house
Method: In vitro kinase assay used to determine IC50 values for tested inhibitors is based on a modified ADP-Glo™ system (Promega) and consists of two parts:
1. Kinase reaction—performed in optimized conditions. At this step PFKFB3 phosphorylates its substrate fructose-6-phosphate using ATP as a source of phosphate to produce fructose-2,6-bisphosphate and ADP. Reaction is performed at Km values for ATP and substrate using optimized buffer composition and time of the reaction. Human recombinant His-tagged PFKFB3 (PFKFB3 BATCH II SEC) with confirmed activity is produced and purified in-house. 2. Detection of ADP as a product of the reaction using ADP-Glo™ system. This part is conducted by using the commercially available kit ADP-Glo™ Kinase Assay (Promega, cat. No# V9103) according to manufacturer's instruction, modified by 5× dilutions of assay reagents (both ADP-Glo™ Reagent and Kinase Detection Solution). Reproducibility and reliability of this modification is confirmed in an optimization process.
Test compounds are dissolved in DMSO and then transferred to the V-bottom 96-well plate. For IC50 determination ten 10× serial dilutions starting from 100 μM are prepared.
Two mixes are prepared on ice: Mix 1—containing appropriate kinase amount in 2× reaction buffer (100 mM TRIS pH 8.0) and Mix 2—containing 2.31× concentrated substrate (Fructose-6-phosphate) and ATP in MilliQ water. 15 μL per well of Mix 1 is transferred to assay wells of 96-well white plate. Next, 2 μl of 15× concentrated test compound in DMSO is added to Mix 1 for 20 min pre-incubation, followed by addition of Mix 2 (13 μl/well). Total reaction volume is 30 μL per well. Samples are tested in duplicates. Final concentration of DMSO in the reaction is 6.7%. Conditions needed for performing PFKFB3 (PFKFB3 BATCH II SEC) in vitro kinase assay are given below:
This protocol is based on Technical Bulletin, ADP-Glo™ Kinase Assay (Promega) and is adapted to 96-well plate containing 30 μL reaction mixture:
30 μL of 5× diluted ADP-Glo™ Reagent is added to each well of 96-well plate containing 30 μL of reaction mixture. The plate is incubated for 90 minutes on a shaker at rt. 60 μL of 5× diluted Kinase Detection Solution is added to each well of 96-well plate containing 60 μL of the solution (ratio of kinase reaction volume to ADP-Glo™ Reagent volume to Kinase Detection Solution volume is maintained at 1:1:2). Plate is incubated for 40 minutes on a shaker at rt, protected from light. Luminescence is measured in the plate reader Synergy 2 (BioTek).
Luminescent readouts for compounds tested in 10 concentrations (routinely from 100 μM to […], […] serial dilutions) in duplicates, as well as for positive control, are first normalized to no-substrate negative control by its subtraction. In the next step, % of normalized positive control is calculated for each data point and plotted against test compound concentration:
% of control—percent of positive control normalized to no-substrate negative control Lumcpd—luminescence of test compound Lumneg—luminescence of no-substrate negative control Lumpos—luminescence of positive control
IC50 parameter is determined by the GraphPad Prism 5.0 software [log(inhibitor) vs. response—Variable slope (four parameters)].

[2] = Microsomal stability (intrinsic clearance), human liver microsomes; type: in vitro ADME; set-up: microsomal CLint: dose or concentration left out as unconfirmed; conditions: human, liver microsomes, pH 7.4, human liver microsomes
Description: A microsomal stability assay is used to measure in vitro clearance (Clint). The assay involves measuring the rate of disappearance of a compound due to its intrinsic attitude to be metabolized (“intrinsic” meaning that the disappearance is not affected by other properties like permeability, binding etc. that play a role when quantifying in vivo clearance). The microsomal stability (intrinsic clearance, Clint) and thus metabolic stability is generally given as μl/min/mg protein. It can be visualized as the volume of solution that 1 mg of microsomes is able to clear of the compound in one minute.
A Tecan Genesis workstation (RSP 150/8) was used for to perform the microsomal incubations. Analysis was carried out using a Waters ACQUITY UPLC system coupled to an ABSciex API3000 mass spectrometer. Data analysis was performed using Assay Explorer (Symyx).
Mobile phases: A=0.1% formic acid in water; B=acetonitrile
Flow rate: 0.750 mL/min; Detection: ESI, MRM; Injection: 10 μL; Column temperature: 50° C.
Potassium phosphate buffer: 0.05 M potassium phosphate buffer pH 7.4 containing 1 mM MgCl2 NADPH (nicotinamide adenine dinucleotide phosphate): 22.5 mg NADPH-Na4 in 1.8 ml potassium phosphate buffer Acetonitrile: 50 Vol % acetonitrile (1 volume acetonitrile, 1 volume water) DMSO: 20 Vol % DMSO in water Stock solution of 20 mg/ml human or mouse liver microsomes (protein)/ml in phosphate buffer Stock solution of 10 mM compound in 100% DMSO

[3] = Solubility PBS (thermodynamic solubility, shake flask method); type: physicochemical; conditions: phosphate buffer (PBS), aqueous buffer, thermodynamic from solid, PBS pH 7.4, 24 hours at 37° C.
Method: The method involves dissolving the test compound in a solvent at a constant temperature followed by HPLC determination of the concentration of the solute in the solution, which must not contain any undissolved particles.
Phosphate Buffer pH 7.4 is prepared by using 50 mL monobasic potassium phosphate solution 0.2 M in a 200-mL volumetric flask and adding 39.1 mL of sodium hydroxide solution 0.2 M and then adding water to volume.
Standard solution is prepared by weighing in a standard compound (about 1 mg) into a flask and dissolved completely in a solution of acetonitrile/methanol (1:1; V/V).
The sample of the test compound (about 2-3 mg) is weighed into a Uniprep® syringeless filter (5 mL; 0.45 μm), the 2 mL of solvent is added and the mixture is agitated for 24 hours at 37° C. The suspension is filtered after 24 hours and the concentration of dissolved substance is determined by HPLC. The result is stated as >x μg/mL, calculated from the sample weight taken and the volume of solvent used
Eluent A: Ultrapure water/Formic acid GR for analysis (999:1, V/V) Eluent B: Acetonitrile/Formic acid GR for analysis (999:1, V/V)
The result is determined quantitatively based on the external standard method through integration of the peak areas with reference to the figures obtained for the standard substance.
L[μg/mL]=a(A)*c(S)*F(A)/a(S)*F(S) Calculation: • a (A)=peak area for analyte/mL • a (S)=peak area for standard/mL • c (S)=concentration of standard (μg/mL) • F (A)=dilution factor for analyte • F (S)=dilution factor for standard

T1 sequence (Q16875 whole entry): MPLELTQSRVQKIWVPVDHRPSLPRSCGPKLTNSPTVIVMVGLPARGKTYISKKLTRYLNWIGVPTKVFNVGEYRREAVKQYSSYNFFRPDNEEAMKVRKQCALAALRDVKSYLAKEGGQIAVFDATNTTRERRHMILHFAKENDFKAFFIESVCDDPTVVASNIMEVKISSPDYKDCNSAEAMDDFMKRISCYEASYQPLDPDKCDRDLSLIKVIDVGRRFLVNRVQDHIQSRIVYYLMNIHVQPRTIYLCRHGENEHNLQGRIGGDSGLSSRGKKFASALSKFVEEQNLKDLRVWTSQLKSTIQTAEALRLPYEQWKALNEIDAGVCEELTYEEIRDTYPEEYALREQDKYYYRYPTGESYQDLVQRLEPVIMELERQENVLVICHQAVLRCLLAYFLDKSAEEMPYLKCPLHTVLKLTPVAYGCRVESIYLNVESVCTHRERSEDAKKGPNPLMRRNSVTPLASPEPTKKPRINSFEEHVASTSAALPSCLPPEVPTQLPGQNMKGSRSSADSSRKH

SMILES	IC50 [1]	microsomal CLint [2]	solubility at 24 h [3]
Cn1ccc2ccc(-c3cc(NC(c4cccnc4)c4ccc(=O)[nH]n4)cc4nccnc34)cc21 (single isomer, unassigned) [Example 2]	28 nM	78 µL/min/mg	10 µg/mL (≈ 21.8 µM)
COc1ccc([C@@H](Nc2cc(-c3ccc4ccn(C)c4c3)c3nccnc3c2)c2cccnc2)nn1 (single isomer, unassigned) [Example 5]	8 nM	264 µL/min/mg	4 µg/mL (≈ 8.45 µM)
Cn1cc([C@H](Nc2cc(-c3ccc4ccn(C)c4c3)c3nccnc3c2)c2cnnn2C)cn1 (single isomer, unassigned) [Example 8]	5.2 nM	50 µL/min/mg	80 µg/mL (≈ 178 µM)
Cn1cc([C@H](Nc2cc(-c3ccc4ccn(C)c4c3)c3nccnc3c2)c2cncn2C)cn1 (single isomer, unassigned) [Example 11]	14 nM	130 µL/min/mg	4 µg/mL (≈ 8.92 µM)
COc1ccc([C@@H](Nc2cc(-c3ccc4ccn(C)c4c3)c3nccnc3c2)c2cccnc2)cn1 [Comparative Example 4, [(S)-(6-methoxy-pyridin-3-yl)-pyridin-3-yl-methyl]-[8-(1-methyl-1H-indol-6-yl)-quinoxalin-6-yl]-amine, reference compound]	9.9 nM	214 µL/min/mg	1 µg/mL (≈ 2.12 µM)
